ChEMBL document CHEMBL5715954, “Silencing c-Myc translation as a therapeutic strategy through targeting PI3Kδ and CK1ε in hematological malignancies” (Blood, 2017)

How the values were obtained:
Design in all cases: scale not given: the % may be the effect or the level left
[1] = biological target: Insulin receptor (Homo sapiens) (UniProt P06213); test: Inhibition of human IR assessed as enzyme activity at 1 uM using poly[Glu:Tyr] (4:1) as substrate preincubated for 20 mins followed by [gamma-33P]-ATP addition and measured after 120 mins by radiometric Hot-SpotSM Kinase assay relative to control
[2] = biological target: T1, Serine/threonine-protein kinase LATS1 (Homo sapiens) (UniProt O95835); test: Inhibition of human LATS1 assessed as enzyme activity at 1 uM using KKRNRRLSVA as substrate preincubated for 20 mins followed by [gamma-33P]-ATP addition and measured after 120 mins by radiometric Hot-SpotSM Kinase assay relative to control
T1 sequence (whole entry): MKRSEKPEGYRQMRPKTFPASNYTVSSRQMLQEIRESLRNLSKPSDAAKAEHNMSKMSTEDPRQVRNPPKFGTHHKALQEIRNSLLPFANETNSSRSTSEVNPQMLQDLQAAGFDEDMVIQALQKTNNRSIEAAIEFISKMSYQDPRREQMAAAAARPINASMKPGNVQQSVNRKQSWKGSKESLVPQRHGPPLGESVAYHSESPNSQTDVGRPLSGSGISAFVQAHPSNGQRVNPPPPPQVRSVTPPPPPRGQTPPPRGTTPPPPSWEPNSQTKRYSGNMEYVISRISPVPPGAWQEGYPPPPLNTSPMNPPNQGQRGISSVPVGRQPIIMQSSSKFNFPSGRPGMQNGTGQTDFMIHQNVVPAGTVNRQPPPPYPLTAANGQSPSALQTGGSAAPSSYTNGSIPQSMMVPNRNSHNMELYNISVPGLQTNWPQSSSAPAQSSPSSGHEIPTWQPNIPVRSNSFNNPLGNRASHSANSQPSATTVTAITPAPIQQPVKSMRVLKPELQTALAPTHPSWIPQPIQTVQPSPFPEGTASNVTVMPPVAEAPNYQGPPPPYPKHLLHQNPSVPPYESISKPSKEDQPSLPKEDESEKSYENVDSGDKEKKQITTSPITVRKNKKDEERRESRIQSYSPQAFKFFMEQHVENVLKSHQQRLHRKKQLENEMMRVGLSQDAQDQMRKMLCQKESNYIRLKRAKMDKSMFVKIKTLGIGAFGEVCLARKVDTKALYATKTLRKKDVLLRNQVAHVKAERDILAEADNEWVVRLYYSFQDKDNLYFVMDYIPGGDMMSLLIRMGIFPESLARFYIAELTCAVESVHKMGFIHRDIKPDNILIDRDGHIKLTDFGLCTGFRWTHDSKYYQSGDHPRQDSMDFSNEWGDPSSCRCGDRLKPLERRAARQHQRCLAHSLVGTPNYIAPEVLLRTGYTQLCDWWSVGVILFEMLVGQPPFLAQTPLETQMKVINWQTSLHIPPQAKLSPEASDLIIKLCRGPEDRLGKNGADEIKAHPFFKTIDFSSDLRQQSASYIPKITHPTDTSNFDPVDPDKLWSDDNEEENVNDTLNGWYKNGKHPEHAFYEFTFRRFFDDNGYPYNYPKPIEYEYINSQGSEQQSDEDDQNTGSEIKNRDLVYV

[3] = biological target: T2, Megakaryocyte-associated tyrosine-protein kinase (Homo sapiens) (UniProt P42679); test: Inhibition of human CTK/MATK assessed as enzyme activity at 1 uM using poly[Glu:Tyr] (4:1) as substrate preincubated for 20 mins followed by [gamma-33P]-ATP addition and measured after 120 mins by radiometric Hot-SpotSM Kinase assay relative to control
T2 sequence (whole entry): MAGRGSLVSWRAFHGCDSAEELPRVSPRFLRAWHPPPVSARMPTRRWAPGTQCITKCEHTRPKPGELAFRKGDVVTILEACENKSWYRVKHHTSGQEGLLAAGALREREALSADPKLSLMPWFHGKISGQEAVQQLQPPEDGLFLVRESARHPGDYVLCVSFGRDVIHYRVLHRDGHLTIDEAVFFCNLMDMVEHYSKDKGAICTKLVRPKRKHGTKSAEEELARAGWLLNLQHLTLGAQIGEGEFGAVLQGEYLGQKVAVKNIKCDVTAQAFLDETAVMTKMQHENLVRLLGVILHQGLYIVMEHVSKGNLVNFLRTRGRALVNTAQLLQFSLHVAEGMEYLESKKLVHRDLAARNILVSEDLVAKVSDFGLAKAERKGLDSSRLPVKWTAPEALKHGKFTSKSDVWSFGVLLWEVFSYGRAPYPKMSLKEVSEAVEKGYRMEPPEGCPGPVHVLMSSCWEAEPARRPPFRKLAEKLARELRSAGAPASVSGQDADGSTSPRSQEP

[4] = biological target: Serine/threonine-protein kinase SIK1 (Homo sapiens) (UniProt P57059); test: Inhibition of human SIK1 assessed as enzyme activity at 1 uM using AMARAASAAALARRR as substrate preincubated for 20 mins followed by [gamma-33P]-ATP addition and measured after 120 mins by radiometric Hot-SpotSM Kinase assay relative to control
[5] = biological target: T3, Serine/threonine-protein kinase Sgk2 (Homo sapiens) (UniProt Q9HBY8); test: Inhibition of human SGK2 assessed as enzyme activity at 1 uM using KGSGSGRPRTSSFAEG as substrate preincubated for 20 mins followed by [gamma-33P]-ATP addition and measured after 120 mins by radiometric Hot-SpotSM Kinase assay relative to control
T3 sequence (whole entry): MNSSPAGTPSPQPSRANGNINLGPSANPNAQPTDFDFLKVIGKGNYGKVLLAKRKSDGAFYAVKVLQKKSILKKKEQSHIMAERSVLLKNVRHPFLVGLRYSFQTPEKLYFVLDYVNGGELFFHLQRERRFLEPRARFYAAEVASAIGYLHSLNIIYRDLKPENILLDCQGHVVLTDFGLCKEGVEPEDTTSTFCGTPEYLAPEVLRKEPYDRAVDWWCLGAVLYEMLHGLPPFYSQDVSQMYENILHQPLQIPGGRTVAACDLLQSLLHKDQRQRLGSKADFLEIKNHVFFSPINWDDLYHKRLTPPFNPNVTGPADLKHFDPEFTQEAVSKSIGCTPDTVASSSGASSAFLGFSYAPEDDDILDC

Sequence of Insulin receptor (Homo sapiens) (P06213 28-758 limits assumed): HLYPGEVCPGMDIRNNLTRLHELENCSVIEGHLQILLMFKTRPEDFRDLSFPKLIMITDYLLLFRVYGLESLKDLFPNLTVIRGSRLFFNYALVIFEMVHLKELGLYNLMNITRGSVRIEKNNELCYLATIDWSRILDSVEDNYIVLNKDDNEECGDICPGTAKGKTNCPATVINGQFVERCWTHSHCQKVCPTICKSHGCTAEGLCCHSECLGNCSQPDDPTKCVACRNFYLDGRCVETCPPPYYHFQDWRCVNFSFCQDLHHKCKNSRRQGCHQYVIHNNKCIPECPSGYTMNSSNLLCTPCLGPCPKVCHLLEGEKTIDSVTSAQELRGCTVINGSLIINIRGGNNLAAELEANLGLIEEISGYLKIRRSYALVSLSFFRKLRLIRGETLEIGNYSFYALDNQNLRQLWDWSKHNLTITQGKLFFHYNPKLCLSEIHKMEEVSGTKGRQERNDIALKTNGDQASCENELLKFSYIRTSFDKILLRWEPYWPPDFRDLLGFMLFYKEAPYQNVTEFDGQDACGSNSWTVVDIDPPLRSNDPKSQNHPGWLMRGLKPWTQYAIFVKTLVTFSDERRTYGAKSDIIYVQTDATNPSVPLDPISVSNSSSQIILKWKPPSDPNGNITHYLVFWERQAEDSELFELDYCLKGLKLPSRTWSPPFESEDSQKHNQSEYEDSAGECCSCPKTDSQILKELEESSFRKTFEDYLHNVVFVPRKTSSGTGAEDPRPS
Sequence of Insulin receptor (Homo sapiens) (P06213 763-1382 limits assumed): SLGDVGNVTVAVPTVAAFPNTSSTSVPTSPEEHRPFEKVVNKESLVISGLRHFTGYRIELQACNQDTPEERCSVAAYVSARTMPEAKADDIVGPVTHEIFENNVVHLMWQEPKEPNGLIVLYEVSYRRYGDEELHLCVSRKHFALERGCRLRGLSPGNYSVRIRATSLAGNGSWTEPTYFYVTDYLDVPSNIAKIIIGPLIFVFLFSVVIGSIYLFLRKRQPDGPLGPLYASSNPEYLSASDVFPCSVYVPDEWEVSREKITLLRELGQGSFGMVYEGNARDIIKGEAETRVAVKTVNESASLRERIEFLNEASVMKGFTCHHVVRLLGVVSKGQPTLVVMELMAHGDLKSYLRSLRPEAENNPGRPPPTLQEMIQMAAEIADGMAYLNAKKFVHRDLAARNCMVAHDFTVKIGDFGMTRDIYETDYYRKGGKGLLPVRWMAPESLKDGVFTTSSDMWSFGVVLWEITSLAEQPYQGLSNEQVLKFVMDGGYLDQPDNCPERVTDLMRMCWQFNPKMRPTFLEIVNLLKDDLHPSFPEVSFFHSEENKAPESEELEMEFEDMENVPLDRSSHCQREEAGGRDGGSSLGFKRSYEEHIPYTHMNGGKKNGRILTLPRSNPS
Sequence of Serine/threonine-protein kinase SIK1 (Homo sapiens) (P57059 whole entry): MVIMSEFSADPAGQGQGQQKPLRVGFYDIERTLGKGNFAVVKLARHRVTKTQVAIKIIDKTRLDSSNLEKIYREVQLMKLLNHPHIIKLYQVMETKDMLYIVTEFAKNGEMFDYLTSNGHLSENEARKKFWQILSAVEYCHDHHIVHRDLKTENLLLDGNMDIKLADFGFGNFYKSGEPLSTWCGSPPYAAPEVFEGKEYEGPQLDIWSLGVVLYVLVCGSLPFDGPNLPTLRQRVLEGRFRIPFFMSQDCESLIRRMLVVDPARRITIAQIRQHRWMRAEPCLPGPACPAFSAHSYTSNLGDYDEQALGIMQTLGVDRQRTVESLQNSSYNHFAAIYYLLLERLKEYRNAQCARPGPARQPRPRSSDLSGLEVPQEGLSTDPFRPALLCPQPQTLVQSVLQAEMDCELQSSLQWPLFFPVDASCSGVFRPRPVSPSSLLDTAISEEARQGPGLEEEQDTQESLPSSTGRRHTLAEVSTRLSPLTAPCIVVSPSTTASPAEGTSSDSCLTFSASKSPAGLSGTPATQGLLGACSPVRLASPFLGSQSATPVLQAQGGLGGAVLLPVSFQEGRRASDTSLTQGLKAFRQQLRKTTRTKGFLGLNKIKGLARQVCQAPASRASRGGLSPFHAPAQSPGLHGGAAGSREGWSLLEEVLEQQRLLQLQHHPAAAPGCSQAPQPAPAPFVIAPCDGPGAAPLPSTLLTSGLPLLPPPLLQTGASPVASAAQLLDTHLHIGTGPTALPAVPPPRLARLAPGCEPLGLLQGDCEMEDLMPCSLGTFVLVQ

SMILES | Activity [1] | Activity [2] | Activity [3] | Activity [4] | Activity [5]
CC[C@H](Nc1ncnc2[nH]cnc12)c1nc2cccc(F)c2c(=O)n1-c1ccccc1 | 99.5% | 95.4% | 105% | 95.5% | 91.9%
C[C@H](Nc1ncnc2nc[nH]c12)c1cc2cccc(Cl)c2c(=O)n1-c1ccccc1 | 98.2% | 99.8% | 105% | 95.7% | 98.8%
CC(C)Oc1ccc(-c2nn([C@@H](C)c3oc4ccc(F)cc4c(=O)c3-c3cccc(F)c3)c3ncnc(N)c23)cc1F [UMBRALISIB] | 99.5% | 96.3% | 106% | 98.2% | 90.9%
